Values quoted from earlier work as cited in patent US5846980A, “N-(benzhydryloxyalkyl)-4-(carboxy/carbamoyl methyl)-piperidine derivatives as antidepressants” (Cooperation Pharmaceutique Francaise, priority 1994, dated 1998).

What was measured:
[1] = test system: sleep induced by phenobarbital; conditions: in vivo
[2] = test system: motor activity of the animals; conditions: in vivo
stereotypic behaviors = conditions: in vivo
[3] = test system: immobility time of the mouse
[4] = test system: ptosis and hypothermia induced by reserpine; conditions: in vivo

1-[2-(Diphenylmethoxy)ethyl]-4-(3-phenylpropenyl)piperazine
sleep induced by phenobarbital [1]: decreases the sleep induced by phenobarbital | motor activity of the animals [2]: increases the motor activity of the animals | stereotypic behaviors (stereotypic behaviors): induces stereotypic behaviors | immobility time in the behavioral despair test [3]: decreases the immobility time of the mouse | antagonism of the hypothermia induced by reserpine [4]: antagonizes neither the ptosis nor the hypothermia induced by reserpine | antagonism of the ptosis induced by reserpine [4]: antagonizes neither the ptosis nor the hypothermia induced by reserpine

c1ccc2sc(C3(N4CCCCC4)CCCCC3)cc2c1 [1-[1-(2-Benzo[b]thiophenyl)cyclohexyl]piperidine]
inhibition of dopamine re-uptake (dopamine re-uptake): inhibit dopamine and noradrenaline re-uptake | inhibition of noradrenaline re-uptake (noradrenaline re-uptake): inhibit dopamine and noradrenaline re-uptake

CN1Cc2c(N)cccc2C(c2ccccc2)C1 (stereo not drawn) [1,2,3,4-tetrahydro-2-methyl-4-phenyl-8-isoquinolinamine]
antidepressant activity in human clinical studies (antidepressant activity): this effect is demonstrated in human clinical studies
